The conditions of series [1]: cited from earlier work.
A short description of the next series: in vivo. The method, then: A separate group of rabbits were studied to obtain pharmacokinetic data. In these rabbits the implants were inserted using a surgical intravitreal implantation procedure performed as follows: a conjunctival incision was made, and a sclerotomy was performed with a 20-gauge MVR blade. The sclerotomy was 3 mm from the limbus and lateral to the dorsal rectus muscle between the 10 and 12 o'clock positions on the right eye, and between the 12 and 2 o'clock positions on the left eye. Using a sterile forceps, the test article was inserted through the sclerotomy. The sclerotomy was closed with 9-0 Prolene suture material. A sterile ocular lubricant was applied to the eye following the implantation procedure. Blood was collected from rabbits prior to euthanasia/necropsy on Days 8, 31, 58, 91, 136, or 184. The aqueous humor, vitreous humor, lens, retina and plasma samples from the rabbits were analyzed by using liquid chromatography-mass spectrometry/mass spectrometry (LC-MS/MS) methods.

The subject of series [2] is Branch retinal vein occlusion (BRVO). The series can be described thus: intravitreal implants in monkeys with laser-induced branch retinal vein occlusion (BRVO). Type of series: in vivo, Cynomolgus monkeys.
Protocol: Baseline measures were performed 3 days prior to implantation and 10 days following implantation with intraocular pressure (IOP), mfERG, laser Doppler scanning topography/flowmetry (HRT/HRF), optical coherence tomography (OCT), indocyanine green angiography (ICG) and fluorescein angiography (FA).
Wide angle contact lens fundus photography verified implant count and localization.
Branch retinal vein occlusion (BRVO) was achieved by injecting 1 ml of 20 mg/kg Rose Bengal intravenously followed by thermal irradiation using Omni Coherent Diode laser at 532 nm, 600 mW, 50 um spot size, 0.01 sec pulse mode with a 1.6× inversion contact lens. Laser pulses were delivered until the vein segment was closed. […] Occlusion was verified post-laser by fundus photography.
Delay in fluorescein filling of the occluded vein was quantified using Metamorph 6.0 software. Intensity measurements were made with pre-defined regions of interest for early and late phases of fluorescein angiography to quantify delay in filling and the observed delay in fluorescein clearance.
Intraocular pressure (IOP) was recorded (OD and OS) in each group in triplicate post implantation and prior to all follow-up electrophysiology and retinal imaging procedures.
Multi-focal ERG was performed using a VERIS 5.0 system.
Setting [3] is: albino, rabbit, lens, other: intravitreal implantation, 200 μg.
Where [4] appears, read: albino, rabbit, plasma, other: intravitreal implantation, 200 μg.
Where [5] appears, read: albino, rabbit, retina, other: intravitreal implantation, 200 μg.
The mark [6] stands for this setting: albino, rabbit, vitreous humor, other: intravitreal implantation, 200 μg.

Structures are written as SMILES. Like-named read-outs stand apart in the source and are kept apart here.

`Brc1c(NC2=NCCN2)ccc2nccnc12` [brimonidine, 5-bromo-6-(2-imidazolidinylideneamino) quinoxaline]: the “solubility in water” value in series [1] (listed as brimonidine free base) is given as “not water soluble”. The “solubility in water” value in series [1] (listed as brimonidine freebase) is “negligible”. Also, in the series “in vivo” (Day 8, Formulation #17 implant, estimate including ALQ samples), the “Iris-ciliary body brimonidine concentration, estimated mean value in parentheses” value was 3010 ng/g. In the series “in vivo” (Day 8 after intravitreal 200 μg brimonidine implant (Formulation #17), N = 2, two samples ALQ), the “Iris-ciliary body brimonidine concentration” value was 942 ng/g. Further, in “in vivo” (Formulation #17 implant), the “period of detectable release from the implant into the vitreous” value is recorded as “at least a ninety day period”, the “route of clearance after release from the intravitreal implant” value was “posterior clearance as opposed to an anterior clearance” and the “time brimonidine was present in the retina” value is recorded as “at least 84 days”. The compound further yielded a concentration at 91 day in “in vivo” (albino, rabbit, iris-ciliary body, other: intravitreal implantation, 200 μg) of 42.9 ± 18.7 ng/g. In “in vivo” (setting [3]), the concentration at 58 day was 17.9 ± 12.5 ng/g, the concentration at 136 day turned out to be 16.2 ± 12.3 ng/g and the concentration at 184 day stood at 1.18 ± 0.71 ng/g. In addition, in the series “in vivo” (setting [4]), the concentration at 8 day is 0.092 ng/mL, the concentration at 31 day was 0.0575 ng/mL and the concentration at 58 day turned out to be 0.255 ng/mL. In the series “in vivo” (setting [5]), this compound registered a concentration at 58 day of 122 ± 57.3 ng/g, a concentration at 91 day of 488 ± 471 ng/g and a concentration at 184 day of 59.8 ± 35 ng/g. Also, in “in vivo” (setting [6]), the concentration at 31 day is 9.35 ± 6.25 ng/mL and the concentration at 58 day is 5.6 ± 3.24 ng/mL. Also, the “detectability in the aqueous humor” value in “in vivo” (any time point (Days 8-184), Formulation #17 implant) was “not detectable at any time point”. Moreover, the “blood flow in the fovea (Laser Doppler Flowmetry)” value in series [2] (following BRVO, FIG. 14) is “unchanged”. Moreover, the “amount of laser burns needed to close the veins” value in series [2] (n=2) was determined as 157±79.

The values above are taken from patent US8529927B2, “Alpha-2 agonist polymeric drug delivery systems” (Allergan, Inc., priority 2004, dated 2013).
